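At the GI50, growth is halved. TGI marks complete inhibition of growth.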
Columns and labels:
Experiment in all cases: inhibition of tumour cell growth, NCI panel, 384-well format
RPMI-8226 leukemia = tested on: RPMI-8226 leukemia
NCI/ADR-RES ovarian = tested on: NCI/ADR-RES ovarian
NCI-H226 lung = tested on: NCI-H226 lung
CCRF-CEM leukemia = tested on: CCRF-CEM leukemia
SNB-19 CNS = tested on: SNB-19 CNS
TK-10 renal = tested on: TK-10 renal
COLO 205 colon = tested on: COLO 205 colon
HCT-116 colon = tested on: HCT-116 colon
LOX IMVI melanoma = tested on: LOX IMVI melanoma
SW-620 colon = tested on: SW-620 colon
A498 renal = tested on: A498 renal
MOLT-4 leukemia = tested on: MOLT-4 leukemia
RXF 393 renal = tested on: RXF 393 renal
PC-3 prostate = tested on: PC-3 prostate
U251 glioblastoma = tested on: U251 glioblastoma
T-47D breast = tested on: T-47D breast
786-0 renal = tested on: 786-0 renal
UACC-257 melanoma = tested on: UACC-257 melanoma
OVCAR-4 ovarian = tested on: OVCAR-4 ovarian
HL-60(TB) leukemia = tested on: HL-60(TB) leukemia
CAKI-1 renal = tested on: CAKI-1 renal
SK-MEL-5 melanoma = tested on: SK-MEL-5 melanoma
HCT-15 colon = tested on: HCT-15 colon
IGROV1 ovarian = tested on: IGROV1 ovarian
A549 NSCLC = tested on: A549 NSCLC
SNB-75 CNS = tested on: SNB-75 CNS
NCI-H460 NSCLC = tested on: NCI-H460 NSCLC
DU-145 prostate = tested on: DU-145 prostate
SF-295 CNS = tested on: SF-295 CNS
NCI-H522 lung = tested on: NCI-H522 lung
SF-539 CNS = tested on: SF-539 CNS
HOP-62 NSCLC = tested on: HOP-62 NSCLC
MDA-MB-435 melanoma = tested on: MDA-MB-435 melanoma
OVCAR-8 ovarian = tested on: OVCAR-8 ovarian
OVCAR-5 ovarian = tested on: OVCAR-5 ovarian
SR leukemia = tested on: SR leukemia
NCI-H322M lung = tested on: NCI-H322M lung
MDA-MB-231 breast = tested on: MDA-MB-231 breast
SK-MEL-2 melanoma = tested on: SK-MEL-2 melanoma
SN12C renal = tested on: SN12C renal
K-562 leukemia = tested on: K-562 leukemia
SK-MEL-28 melanoma = tested on: SK-MEL-28 melanoma
MCF7 breast = tested on: MCF7 breast
UO-31 renal = tested on: UO-31 renal
MALME-3M melanoma = tested on: MALME-3M melanoma
UACC-62 melanoma = tested on: UACC-62 melanoma
BT-549 breast = tested on: BT-549 breast

Structure (SMILES): N=C(N)c1ccc2nc(-c3cc(CC(=O)N[C@@H](CC(=O)O)C(=O)O)cc(-c4cc(S(N)(=O)=O)ccc4O)c3O)[nH]c2c1
- GI50 (RPMI-8226 leukemia): > 100 µM
- TGI (RPMI-8226 leukemia): > 100 µM
- GI50 (NCI/ADR-RES ovarian): > 100 µM
- TGI (NCI/ADR-RES ovarian): > 100 µM
- GI50 (NCI-H226 lung): > 100 µM
- TGI (NCI-H226 lung): > 100 µM
- GI50 (CCRF-CEM leukemia): > 100 µM
- TGI (CCRF-CEM leukemia): > 100 µM
- GI50 (SNB-19 CNS): > 100 µM
- TGI (SNB-19 CNS): > 100 µM
- GI50 (TK-10 renal): > 100 µM
- TGI (TK-10 renal): > 100 µM
- GI50 (COLO 205 colon): > 100 µM
- TGI (COLO 205 colon): > 100 µM
- GI50 (HCT-116 colon): > 100 µM
- TGI (HCT-116 colon): > 100 µM
- GI50 (LOX IMVI melanoma): > 100 µM
- TGI (LOX IMVI melanoma): > 100 µM
- GI50 (SW-620 colon): > 100 µM
- TGI (SW-620 colon): > 100 µM
- GI50 (A498 renal): > 100 µM
- TGI (A498 renal): > 100 µM
- GI50 (MOLT-4 leukemia): > 100 µM
- TGI (MOLT-4 leukemia): > 100 µM
- GI50 (RXF 393 renal): > 100 µM
- TGI (RXF 393 renal): > 100 µM
- GI50 (PC-3 prostate): > 100 µM
- TGI (PC-3 prostate): > 100 µM
- GI50 (U251 glioblastoma): > 100 µM
- TGI (U251 glioblastoma): > 100 µM
- GI50 (T-47D breast): > 100 µM
- TGI (T-47D breast): > 100 µM
- GI50 ([…]-0 renal): > 100 µM
- TGI (786-0 renal): > 100 µM
- GI50 (UACC-257 melanoma): > 100 µM
- TGI (UACC-257 melanoma): > 100 µM
- GI50 (OVCAR-4 ovarian): > 100 µM
- TGI (OVCAR-4 ovarian): > 100 µM
- GI50 (HL-60(TB) leukemia): > 100 µM
- TGI (HL-60(TB) leukemia): > 100 µM
- GI50 (CAKI-1 renal): > 100 µM
- TGI (CAKI-1 renal): > 100 µM
- GI50 (SK-MEL-5 melanoma): > 100 µM
- TGI (SK-MEL-5 melanoma): > 100 µM
- GI50 (HCT-15 colon): > 100 µM
- TGI (HCT-15 colon): > 100 µM
- GI50 (IGROV1 ovarian): > 100 µM
- TGI (IGROV1 ovarian): > 100 µM
- GI50 (A549 NSCLC): > 100 µM
- TGI (A549 NSCLC): > 100 µM
- GI50 (SNB-75 CNS): > 100 µM
- TGI (SNB-75 CNS): > 100 µM
- GI50 (NCI-H460 NSCLC): > 100 µM
- TGI (NCI-H460 NSCLC): > 100 µM
- GI50 (DU-145 prostate): > 100 µM
- TGI (DU-145 prostate): > 100 µM
- GI50 (SF-295 CNS): > 100 µM
- TGI (SF-295 CNS): > 100 µM
- GI50 (NCI-H522 lung): > 100 µM
- TGI (NCI-H522 lung): > 100 µM
- GI50 (SF-539 CNS): > 100 µM
- TGI (SF-539 CNS): > 100 µM
- GI50 (HOP-62 NSCLC): > 100 µM
- TGI (HOP-62 NSCLC): > 100 µM
- GI50 (MDA-MB-435 melanoma): > 100 µM
- TGI (MDA-MB-435 melanoma): > 100 µM
- GI50 (OVCAR-8 ovarian): > 100 µM
- TGI (OVCAR-8 ovarian): > 100 µM
- GI50 (OVCAR-5 ovarian): > 100 µM
- TGI (OVCAR-5 ovarian): > 100 µM
- GI50 (SR leukemia): > 100 µM
- TGI (SR leukemia): > 100 µM
- GI50 (NCI-H322M lung): > 100 µM
- TGI (NCI-H322M lung): > 100 µM
- GI50 (MDA-MB-231 breast): > 100 µM
- TGI (MDA-MB-231 breast): > 100 µM
- GI50 (SK-MEL-2 melanoma): > 100 µM
- TGI (SK-MEL-2 melanoma): > 100 µM
- GI50 (SN12C renal): > 100 µM
- TGI (SN12C renal): > 100 µM
- GI50 (K-562 leukemia): > 100 µM
- TGI (K-562 leukemia): > 100 µM
- GI50 (SK-MEL-28 melanoma): > 100 µM
- TGI (SK-MEL-28 melanoma): > 100 µM
- GI50 (MCF7 breast): > 71.5 µM
- TGI (MCF7 breast): > 100 µM
- GI50 (UO-31 renal): > 100 µM
- TGI (UO-31 renal): > 100 µM
- GI50 (MALME-3M melanoma): > 100 µM
- TGI (MALME-3M melanoma): > 100 µM
- GI50 (UACC-62 melanoma): > 100 µM
- TGI (UACC-62 melanoma): > 100 µM
- GI50 (BT-549 breast): > 100 µM
- TGI (BT-549 breast): > 100 µM

From PubChem BioAssay (NCI)
